# In US20020137929A1, “1 - (3-heterocyclylphenyl) isothiourea, -isourea, -guanidine and -amidine herbicidal agents” (Intellectual Property Department, BASF Aktiengesellschaft, priority 1998, published 2002):
# Experiments:
# SETVI (Foxtail, Green) [1] = assay: Postemergence herbicidal evaluation; format: in vivo, Setaria viridis; conditions: postemergence
# Procedure, shortened: (§1)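 Two-week seedlings sprayed postemergence at 40 psi; formulation: 1:1 acetone/water, 0.5% TWEEN 20; application ≈0.0156–0.500 kg/ha. Greenhouse grow-out, then 0–9 visual scoring at 4–5 weeks.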
# ABUTH (Velvetleaf) [2] = assay: Preemergence herbicidal evaluation; format: in vivo, Abutilon theophrasti; conditions: rated 4-5 weeks after treatment; for ABUTH rating: preemergence, 0-9 scale
# Procedure, shortened: (§2)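 In this greenhouse assay, monocot and dicot seeds are planted in soil and treated prior to emergence with an aqueous acetone spray (about 0.0156-0.500 kg/ha). Plants are assessed visually against control on a 0-9 scale after 4-5 weeks.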
# [3] = tested on: SAGPY (Arrowhead (Pygmaea)); assay: Preemergence weed control under flooded paddy conditions; format: in vivo, Sagittaria pygmaea; conditions: rated 3-4 weeks after treatment
# Procedure, shortened: (§3)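 Using flooded silt loam (water 1.5 to 3 cm deep), seeds sown in the top 0.5 cm were exposed preemergence to compound pipetted into the flood at about 0.0313 to 0.500 kg/ha. Effects were scored 0-9 by eye three to four weeks later.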
# MOOVA (Monochoria) = assay: as above; format: in vivo, Monochoria vaginalis; conditions: rated 3-4 weeks after treatment
# Procedure, shortened: as §3
# CASOB (Sicklepod) = assay: Preemergence herbicidal evaluation; format: in vivo, Cassia obtusifolia; conditions: rated 4-5 weeks after treatment; for CASOB rating: preemergence, 0-9 scale
# Procedure, shortened: as §2
# SETVI (Foxtail, Green) [4] = assay: Preemergence herbicidal evaluation; format: in vivo, Setaria viridis; conditions: rated 4-5 weeks after treatment; for SETVI rating: preemergence, 0-9 scale
# Procedure, shortened: as §2
# [5] = tested on: TRZAWR (Wheat, Winter, cv Riband); assay: Postemergence herbicidal evaluation; format: in vivo, Triticum aestivum; conditions: postemergence
# Procedure, shortened: as §1
# AMBEL (Ragweed, Common) = assay: Postemergence herbicidal evaluation; format: in vivo, Ambrosia artemisifolia; conditions: postemergence
# Procedure, shortened: as §1
# ORYSAT (Rice, Tebonnet) = assay: Postemergence herbicidal evaluation; format: in vivo, Oryza sativa, (L.) Tebonnet; conditions: postemergence
# Procedure, shortened: as §1
# [6] = tested on: GLXMAW (Soybean, Williams); assay: Postemergence herbicidal evaluation; format: in vivo, Glycine max, (L.) Merr. cv Williams; conditions: postemergence
# Procedure, shortened: as §1
# ABUTH (Velvetleaf) [7] = assay: Postemergence herbicidal evaluation; format: in vivo, Abutilon theophrasti; conditions: postemergence
# Procedure, shortened: as §1
# ECHCG (Barnyardgrass) = assay: Postemergence herbicidal evaluation; format: in vivo, Echinochloa crus-galli; conditions: postemergence
# Procedure, shortened: as §1
structure (smiles),measurement,setting,value
"C=CCOC(=O)CN1C(=O)CSC1=Nc1cc(-n2c(=O)cc(C(F)(F)F)n(C)c2=O)c(F)cc1Cl [Compound 106, Allyl 2-{{2-chloro-5-[3,6-dihydro-3-methyl-2,6-dioxo-4-(trifluoromethyl)-1(2H)-pyrimidinyl]-4-fluorophenyl}imino}-4-oxo-3-thiazolidineacetate]",herbicidal rating SETVI,"SETVI (Foxtail, Green) [1]; rate 0.0158 kg/ha",4.0
same,herbicidal rating SETVI,"SETVI (Foxtail, Green) [1]; rate 0.0315 kg/ha",3.0
same,herbicidal rating SETVI,"SETVI (Foxtail, Green) [1]; rate 0.0630 kg/ha",9.0
same,ABUTH rating,ABUTH (Velvetleaf) [2]; 0.0313 kg/ha,6.5
same,ABUTH rating,ABUTH (Velvetleaf) [2]; 0.0625 kg/ha,8.0
same,ABUTH rating,ABUTH (Velvetleaf) [2]; 0.1250 kg/ha,9.0
same,ABUTH rating,ABUTH (Velvetleaf) [2]; 0.2500 kg/ha,9.0
same,Preemergence herbicidal rating ABUTH,ABUTH (Velvetleaf) [2]; rate 0.0156 kg/ha,5.0
same,SAGPY herbicidal effect rating,[3]; 0.0313 kg/ha,3.0
same,SAGPY herbicidal effect rating,[3]; 0.0625 kg/ha,4.0
same,SAGPY herbicidal effect rating,[3]; 0.1250 kg/ha,5.0
same,SAGPY herbicidal effect rating,[3]; 0.2500 kg/ha,7.0
same,MOOVA herbicidal effect rating,MOOVA (Monochoria); 0.0313 kg/ha,9.0
same,MOOVA herbicidal effect rating,MOOVA (Monochoria); 0.0625 kg/ha,9.0
same,MOOVA herbicidal effect rating,MOOVA (Monochoria); 0.1250 kg/ha,9.0
same,MOOVA herbicidal effect rating,MOOVA (Monochoria); 0.2500 kg/ha,9.0
same,CASOB rating,CASOB (Sicklepod); 0.0313 kg/ha,1.5
same,CASOB rating,CASOB (Sicklepod); 0.0625 kg/ha,2.0
same,CASOB rating,CASOB (Sicklepod); 0.1250 kg/ha,4.0
same,CASOB rating,CASOB (Sicklepod); 0.2500 kg/ha,6.0
same,Preemergence herbicidal rating CASOB,CASOB (Sicklepod); rate 0.0156 kg/ha,0.0
same,SETVI rating,"SETVI (Foxtail, Green) [4]; 0.0313 kg/ha",0.5
same,SETVI rating,"SETVI (Foxtail, Green) [4]; 0.0625 kg/ha",4.5
same,SETVI rating,"SETVI (Foxtail, Green) [4]; 0.1250 kg/ha",9.0
same,SETVI rating,"SETVI (Foxtail, Green) [4]; 0.2500 kg/ha",9.0
same,Preemergence herbicidal rating SETVI,"SETVI (Foxtail, Green) [4]; rate 0.0156 kg/ha",0.0
same,herbicidal rating TRZAWR,[5]; rate 0.0158 kg/ha,2.5
same,herbicidal rating TRZAWR,[5]; rate 0.0315 kg/ha,3.0
same,herbicidal rating TRZAWR,[5]; rate 0.0630 kg/ha,4.5
same,herbicidal rating AMBEL,"AMBEL (Ragweed, Common); rate 0.0158 kg/ha",7.0
same,herbicidal rating AMBEL,"AMBEL (Ragweed, Common); rate 0.0315 kg/ha",7.0
same,herbicidal rating AMBEL,"AMBEL (Ragweed, Common); rate 0.0630 kg/ha",9.0
same,herbicidal rating ORYSAT,"ORYSAT (Rice, Tebonnet); rate 0.0158 kg/ha",2.0
same,herbicidal rating ORYSAT,"ORYSAT (Rice, Tebonnet); rate 0.0315 kg/ha",2.5
same,herbicidal rating ORYSAT,"ORYSAT (Rice, Tebonnet); rate 0.0630 kg/ha",4.0
same,herbicidal rating GLXMAW,[6]; rate 0.0158 kg/ha,4.5
same,herbicidal rating GLXMAW,[6]; rate 0.0315 kg/ha,5.5
same,herbicidal rating GLXMAW,[6]; rate 0.0630 kg/ha,6.0
same,herbicidal rating ABUTH,ABUTH (Velvetleaf) [7]; rate 0.0158 kg/ha,9.0
same,herbicidal rating ABUTH,ABUTH (Velvetleaf) [7]; rate 0.0315 kg/ha,9.0
same,herbicidal rating ABUTH,ABUTH (Velvetleaf) [7]; rate 0.0630 kg/ha,9.0
same,herbicidal rating ECHCG,ECHCG (Barnyardgrass); rate 0.0158 kg/ha,2.0
same,herbicidal rating ECHCG,ECHCG (Barnyardgrass); rate 0.0315 kg/ha,2.0
same,herbicidal rating ECHCG,ECHCG (Barnyardgrass); rate 0.0630 kg/ha,7.0
